Measured values reported in paper PMC3527451, “A Pilot Randomized, Placebo Controlled, Double Blind Phase I Trial of the Novel SIRT1 Activator SRT2104 in Elderly Volunteers” (PLoS ONE, 2012).
Entries after “also recorded” stand apart in the source; their conditions may differ.

How the values were obtained:
[1] = Plasma pharmacokinetics of SRT2104, once daily oral dosing for 28 days in elderly volunteers; assay type: in vivo, human; settings: for AUC(0-∞), Geometric Least Square Mean: Day 1, AUC(0-∞); for AUC(0-t)_D, dose-normalized Geometric Least Square Mean / AUC(0-∞)_D, dose-normalized Geometric Least Square Mean / Cmax_D, dose-normalized Geometric Least Square Mean / AUC(0-τ)_D, dose-normalized Geometric Least Square Mean: normalized to 0.5 g
Text: This was a phase I, single-center, double-blind, randomized, placebo-controlled, parallel-arm study to assess the safety, tolerability, pharmacokinetic and initial pharmacodynamic properties of […] Pharmaceuticals, Cambridge, MA, USA) administered for the first time to male and female elderly volunteers 60 to 80 years of age. Volunteers were enrolled between 01 Oct 2009 and 5 Feb 2010. […] The selection of the doses investigated in this study was based upon safety and pharmacokinetic data obtained from a previous clinical study involving SRT2104 [19]. Suitability of participants was defined on the basis of a medical history, physical examination, vital signs, electrocardiogram and laboratory measurements. Subjects were required to have normal fasting glucose levels (4.4 to 6.0 mmol/L) at screening and a body mass index of at least 18 kg/m^2 and no greater than 30 kg/m^2. […] Subjects were deemed ineligible if they participated in any clinical trial with an investigative medicinal product within the past three months prior to the first dose in the current study, had been exposed to more than three new chemical entities within 12 months of enrollment, or used other concomitant medications and herbal products in the previous 3 months that in the opinion of the investigator could interfere with the study procedures or compromise subject safety. Additional exclusions included: women of childbearing potential and non-sterile men, unless they agreed to use acceptable method of contraception; history of alcoholism or drug abuse (including a positive pre-study drug/alcohol test at screening); use of tobacco or nicotine products; history of complications when donating blood or known relative inaccessibility of veins for venipuncture; donation of blood within three months of enrolment; history of significant drug or other allergies. Participants were asked to maintain their usual level of physical activity for the duration of the study. During the treatment phase of the study (days 1 to 28 inclusive), test material (SRT2104 or placebo) was supplied as 250 mg capsules and was administered at approximately the same time every morning, approximately 15 minutes following consumption of a standardized meal (Ensure Plus®, a high energy, high protein liquid meal replacement product providing approximately 650 kcal with approximately 30% of calories derived from fat). Subjects were not permitted to consume additional calories for at least 1-2 hours after dosing, although water was permitted ad libitum. Subjects were also instructed to refrain from caffeine and alcohol for 24 hours prior to screening and during assessments visits. The test material was administered within the investigation clinical unit on the days when serial pharmacokinetic sampling was performed (days 1-2 and 28-29) and at home on the remaining days (days 3-27). A diary card was provided to volunteers to confirm daily consumption of the standardized meal, as well as time of dose and number of capsules taken. Missing doses were recorded. Pharmacokinetic samples were collected through 24 hours post-dose on the first and last day of the dosing period (immediately prior to dosing and at 15, 30 minutes and 1, 2, 3, 4, 8, 12 and 24 hours post-dose). Blood samples for pharmacokinetic analysis were collected in pre-labelled lithium heparin heparin Vacutainers for pharmacokinetic analysis (∼4 mL per draw). Each sample was separated by centrifugation at 1500×g and 4°C for 10 minutes. Two equal aliquots of plasma were transferred to polypropylene vials labelled identically to the original blood sample and stored at approximately -20°C for subsequent analysis of plasma SRT2104 concentration. The bio-analysis was performed by Simbec Research Ltd, […], South Wales, UK. Pharmacokinetic parameters for SRT2104 were derived from non-compartmental methods using WinNonLin v5.2 (Pharsight Corporation, Mountain View, CA, USA). […]

[2] = system: elderly male and female volunteers; experiment: Serum lipid profile at baseline and after 28 days treatment; assay type: in vivo, human
Protocol: At every visit (including at screening and follow-up), blood and urine samples were collected for clinical laboratory assessments (general blood biochemistry, full blood count, coagulation parameters and urinalysis). On the same days, physical examination, vital signs (resting pulse rate, respiration rate, temperature, and blood pressure readings), pre- and post-dose 12-lead ECG and a review of adverse events (AE) and any medications received were also performed. Safety evaluations were based on the incidence, severity and type of AEs and clinically significant changes from baseline in physical examination findings, vital signs or clinical laboratory results.

[3] = system: bacterial reverse mutation assay (AMES test), mouse lymphoma and mouse micronucleus; set-up: method as in ref 17, 18; SRT2104 Investigator's Brochure; settings: preclinical; SRT2104 Investigator's Brochure; cited from earlier work
[4] = 0.5 or 2.0 g once daily, abstract summary

## Cc1nc(-c2cccnc2)sc1C(=O)Nc1ccccc1-c1cn2c(CN3CCOCC3)csc2n1 [SRT2104]
[1]; 0.5 g/day group
  Tmax (mean peak plasma concentration): 2 to 4 h
  between-subject variability for AUC(0–24), geometric mean CV: 140%
[1]; 0.5 g/day group, after first administration
  t1/2 of one subject: 29.7 h
[1]; 0.5 g/day group, after repeated administrations
  t1/2 of one subject: 28.3 h
[1]; 0.5 g/day, Day 1
  AUC(0-t), Geometric Least Square Mean: 1950.07 ng·h/mL
  Cmax, Geometric Least Square Mean: 326.22 ng/mL
[1]; 0.5 g/day
  AUC(0-∞), Geometric Least Square Mean: 2503.70 ng·h/mL
[1]; 0.5 g/day, Day 1, geometric mean
  AUC0-∞: 1790.8 ng·h/mL
[1]; 0.5 g/day, Day 1, mean
  AUC0-t: 1872.9 ng·h/mL
  CL/F: 594.2 L/h
  Cmax: 343.4 ng/mL
  t1/2: 14.9 h
[1]; 0.5 g/day, Day 1, median
  tmax: 3.0 h
[1]; 0.5 g/day, Day 28
  AUC(0-t), Geometric Least Square Mean: 1610.10 ng·h/mL
  Cmax, Geometric Least Square Mean: 199.12 ng/mL
[1]; 0.5 g/day, Day 28, geometric mean
  AUC0-∞: 2687.8 ng·h/mL
[1]; 0.5 g/day, Day 28, mean
  AUC0-t: 2280.4 ng·h/mL
  CL/F: 566.9 L/h
  Cmax: 373.4 ng/mL
  t1/2: 17.5 h
[1]; 0.5 g/day, Day 28, median
  tmax: 3.0 h
[1]; [4]
  Mean Tmax: 2 to 4 h
  elimination half-life: 15 to 20 h
[1]; 0.5 to 2.0 g/day
  dose proportionality of exposure (Cmax, AUC): less than dose-proportionally; also recorded: less than dose proportional increase in exposure
[1]; 2.0 g/day group
  between-subject variability for AUC(0–24), geometric mean CV: 102%
[1]; 2.0 g/day group, after the first dose
  Tmax (apparent mean rise to peak concentration): 2 to 8 h
[1]; 2.0 g/day, Day 1
  AUC(0-t), Geometric Least Square Mean: 1743.14 ng·h/mL
  Cmax, Geometric Least Square Mean: 301.28 ng/mL
[1]; 2.0 g/day
  AUC(0-∞), Geometric Least Square Mean: 1788.42 ng·h/mL
[1]; 2.0 g/day, Day 1, geometric mean
  AUC0-∞: 2073.5 ng·h/mL
[1]; 2.0 g/day, Day 1, mean
  AUC0-t: 3249.2 ng·h/mL
  CL/F: 1624.4 L/h
  Cmax: 477.6 ng/mL
  t1/2: 15.1 h
[1]; 2.0 g/day, Day 1, median
  tmax: 3.0 h
[1]; 2.0 g/day, Day 28
  AUC(0-t), Geometric Least Square Mean: 3577.50 ng·h/mL
  Cmax, Geometric Least Square Mean: 389.50 ng/mL
[1]; 2.0 g/day, Day 28, geometric mean
  AUC0-∞: 7729.6 ng·h/mL
[1]; 2.0 g/day, Day 28, mean
  AUC0-t: 4797.4 ng·h/mL
  CL/F: 789.6 L/h
  Cmax: 572.4 ng/mL
  t1/2: 21.6 h
[1]; 2.0 g/day, Day 28, median
  tmax: 3.0 h
[1]; 2.0 g/day, repeat administration
  increase in mean AUC(0–24) relative to the first day of dosing: approximately two-fold increases
[1]; Day 1, 0.5 g/day
  AUC(0-t)_D, dose-normalized Geometric Least Square Mean: 1297.86 ng·h/mL
  AUC(0-∞)_D, dose-normalized Geometric Least Square Mean: 1754.57 ng·h/mL
  Cmax_D, dose-normalized Geometric Least Square Mean: 215.74 ng/mL
[1]; Day 1, 2.0 g/day
  AUC(0-t)_D, dose-normalized Geometric Least Square Mean: 516.59 ng·h/mL
  AUC(0-∞)_D, dose-normalized Geometric Least Square Mean: 504.43 ng·h/mL
  Cmax_D, dose-normalized Geometric Least Square Mean: 69.64 ng/mL
[1]; Day 1, dose proportionality
  AUC(0-t)_D, % Ratio (90% C.I.) 2.0 g/0.5 g: 39.80 (14.39–110.07) %
  AUC(0-∞)_D, % Ratio (90% C.I.) 2.0 g/0.5 g: 28.75 (9.56–86.49) %
  Cmax_D, % Ratio (90% C.I.) 2.0 g/0.5 g: 32.28 (10.41–100.15) %
[1]; Day 28, 0.5 g/day
  AUC(0-t)_D, dose-normalized Geometric Least Square Mean: 1548.09 ng·h/mL
  AUC(0-τ)_D, dose-normalized Geometric Least Square Mean: 1548.74 ng·h/mL
  AUC(0-∞)_D, dose-normalized Geometric Least Square Mean: 2636.12 ng·h/mL
  Cmax_D, dose-normalized Geometric Least Square Mean: 206.06 ng/mL
[1]; Day 28, 2.0 g/day
  AUC(0-t)_D, dose-normalized Geometric Least Square Mean: 911.01 ng·h/mL
  AUC(0-τ)_D, dose-normalized Geometric Least Square Mean: 909.85 ng·h/mL
  AUC(0-∞)_D, dose-normalized Geometric Least Square Mean: 1903.42 ng·h/mL
  Cmax_D, dose-normalized Geometric Least Square Mean: 96.83 ng/mL
[1]; Day 28, dose proportionality
  AUC(0-t)_D, % Ratio (90% C.I.) 2.0 g/0.5 g: 58.85 (25.18–137.51) %
  AUC(0-τ)_D, % Ratio (90% C.I.) 2.0 g/0.5 g: 58.75 (25.10–137.52) %
  AUC(0-∞)_D, % Ratio (90% C.I.) 2.0 g/0.5 g: 72.21 (33.02–157.88) %
  Cmax_D, % Ratio (90% C.I.) 2.0 g/0.5 g: 46.99 (15.44–142.99) %
[1]; human, in vivo
  Cmax, AUC(0-τ) and AUC(0–24) exposures in the 2.0 g/day group compared to the 0.5 g/day group: approximately two-fold higher or less
  differences in exposure between men and women: No apparent differences in exposure
[1]; mono-exponential decline, both doses
  apparent half-life: approximately 15 hours
[2]; 0.5 g/day, day 28, p = 0.0071
  serum cholesterol levels, change relative to baseline as compared to placebo: statistically significant decrease
[2]; 2.0 g/day, day 28, p = 0.0141
  increase in mean HDL:LDL ratio as compared to placebo: statistically significant
[2]; 2.0 g/day, day 28, p = 0.0181
  serum cholesterol levels, change relative to baseline as compared to placebo: statistically significant decrease
[2]; 7 days of drug washout
  total cholesterol, LDL levels and HDL:LDL ratio after drug washout: reverted to baseline values
[2]; day 28
  high-density lipoprotein, HDL: not changes
  low-density lipoprotein (LDL) cholesterol: decreases
[2]; day 28, 0.5 and 2.0 g/day
  mean HDL:LDL ratios: dose-dependent increase
[2]; day 28 relative to baseline, as compared to placebo, not dose-dependent, only a trend for 2.0 g/day
  mean serum triglyceride concentration: decrease
[2]; with treatment, 0.5 or 2.0 g for 28 days
  Serum cholesterol, LDL levels and triglycerides: decreased
[3]
  genotoxicity: not genotoxic
